# Data published in patent publication US20040127529A1, “Remedies for skin ulcer” (Fujisawa Pharmaceutical Co., Ltd., priority 1999, published 2004).
# System: full-thickness wound in C57BL/KsJ db/db mice
# Assay: db/db mouse full-thickness wound model
# Assay type: in vivo
# Conditions: for wound area reduction: 100 μl applied once daily for 18 days, day 18 following wound construction (vehicle 73%); for day from which wound area differs significantly (p<0.05) from the vehicle control group: once daily
# Excerpt: Test Example 1 (db/db mouse full-thickness wound model)
# Using 10-week-old male C57BL/KsJ db/db mice (db/db mice) and the corresponding control C57BL/KsJ +m/+m mice (+m/+m mice), the back hair coat was removed with a depilatory cream. After 3 days, using ophthalmological scissors, the skin in a circular area with a diameter of about 1.5 cm at the dorsal midline was removed to construct a full-thickness wound. Thereafter, the full-thickness wound area was covered with a poly-urethane film agent. During 18 consecutive days beginning the day of wound construction, 100 μl of the investigational compound solution or distilled water (vehicle) was taken in a syringe and applied through the polyurethane film once daily. The polyurethane film agent was changed every day and after disinfection with 3% H2O2, the drug was applied in the same manner as above. The wound area was measured by the tracing method under light anesthesia every other day as a rule. With the initial wound area at the beginning of drug application being taken as 100%, the fractional area at each day of measurement was calculated.
structure (smiles),measurement,setting,value
"O=C(O)COc1cccc2c1CC[C@](O)(COC(=O)N(c1ccccc1)c1ccccc1)C2 [test compound, [[(2R)-5-(carboxymethoxy)-2-hydroxy-1,2,3,4-tetrahydronaphth-2-yl]methyl]N,N-diphenylcarbamate]",early expansion of wound area,0.01% and 0.1% solutions,not observed
same,overall conclusion on wound healing,0.01% and 0.1% solutions,wound healing-promoting action
same,wound area reduction,0.01% solution,90%
same,day from which wound area differs significantly (p<0.05) from the vehicle control group,0.01% solution,≥ 7 days
same,wound area reduction,0.1% solution,93%
same,day from which wound area differs significantly (p<0.05) from the vehicle control group,0.1% solution,≥ 4 days
